Reference: article PMC5605198, “MELK is not necessary for the proliferation of basal-like breast cancer cells” (eLife, 2017)

Assays:
[1] = tested on: FKBP12^F36V-MELK(sg3R); experiment: dTAG-induced degradation, immunoblot; assay type: cell-based; settings: MELK−/− MDA-MB-468-FKBP12^F36V-MELK(sg3R) cells
Description: Four dTAG molecules (7, 13, 36 and 47) that vary in linker length and chemical structure were tested for their efficiency at depleting FKBP12^F36V-MELK(sg3R) (Figure 4A, Figure 4—figure supplement 3).
Figure 4. […] (A) Chemical structure of heterobifunctional dTAG molecule dTAG-47. See also Figure 4—figure supplement 3 for the chemical structures of dTAG-7, dTAG-13 and dTAG-36. (B) Immunoblots for MELK and GAPDH after treatment of dTAG-7, 13, 36, and 47 at indicated concentrations in MELK−/− MDA-MB-468-FKBP12^F36V-MELK(sg3R) cells for 4 hours. See Figure 4—figure supplement 1 for details of the generation of MELK−/− MDA-MB-468-FKBP12^F36V-MELK(sg3R) clones. (C) Same as in 4B, but with treatment at 500 nM and extended treatment times for 14, 24, 48, and 72 hours. (D) Changes in abundance of 7270 proteins (peptide count ≥2) comparing MELK−/− MDA-MB-468-FKBP12^F36V-MELK cells treated with dTAG-7 (250 nM) or DMSO for 1 hour, versus p-value (dTAG-7: triplicate, DMSO: duplicate, limma moderated t-test). See also Figure 4—source datas 1 and 2 for the original and the processed data. (E) Crystal violet staining image showing parental MDA-MB-468 cells and MELK−/− MDA-MB-468-FKBP12^F36V-MELK(sg3R) cells after treatment with DMSO or 500 nM of dTAG-47 for 9 days. Immunoblots showing MELK and GAPDH from a duplicate plate on Day 9 confirmed sustained depletion of FKBP12^F36V-MELK(sg3R). These are representative data from one of two independent experiments. Figure 4—source data 1. Raw integrated ion intensities from quantitative multiplexed proteomics. Figure 4—source data 2. Processed Data and Statistical Analysis by limma (topTable). Figure 4—figure supplement 1. Single clones selected from MDA-MB-468-FKBP12^F36V-MELK(sg3R) cells subject to CRISPR/Cas9-mediated knockout of endogenous MELK. Immunoblots for MELK and GAPDH in single cell clones selected from MDA-MB-468-FKBP12^F36V-MELK(sg3R) transfected with Cas9/sgMELK-3 to knockout endogenous MELK. Clone 1D4 is clone 1 and clone 1A3 is clone 2 in Figure 4. Clone 1D4 was confirmed with heterozygous −1 and +1 indels; clone 1A3 was confirmed with homozygous −1 deletions. [drawing 5] Figure 4—figure supplement 2. […] (A) Immunoblots for MELK, cyclin B1 and GAPDH in asynchronous versus M-phase arrested MDA-MB-468 cells and MDA-MB-468-FKBP12^F36V-MELK(sg3R) cells (clone 1). […] Chemical structures of dTAG molecules. FKBP12^F36V-binding ligands conjugated by variable linkers to thalidomide or pomalidomide, including (A) dTAG-7, (B) dTAG-13 and (C) dTAG-36 are capable of inducing degradation of FKBP12^F36V-tagged proteins of interest. [drawing 7]

[2] = tested on: MKL1; experiment: Quantitative multiplexed proteomics (TMT LC-MS3); assay type: cell-based, human; settings: 250 nM, 60 min, MELK−/− MDA-MB-468-FKBP12^F36V-MELK cells
Description: (§1) MELK−/− MDA-MB-468-FKBP12^F36V-MELK cells were treated in duplicates with DMSO for 30 minutes or 60 minutes, or in triplicates with dTAG-7 (250 nM) for 30 minutes or 60 minutes. Cells were washed with ice-cold PBS once, collected by scraping and centrifugation, and lysed in 1 mL of lysis buffer (8 M urea, 1% SDS, 50 mM Tris pH8.5 supplemented with protease and phosphatase inhibitors). A micro-BCA assay (Pierce) was used to determine the protein concentration of each sample. A total of 1200 µg of proteins from each sample was depleted of abundant proteins using two Pierce Top 12 protein depletion spin columns. Eluted proteins were combined, and protein concentration was determined by micro-BCA. Proteins were precipitated on ice for 1 hour with 13% trichloroacetic acid (TCA), washed twice with acetone, and pellets were allowed to air dry. Proteins were resuspended in 6 M urea, 50 mM Tris pH 8.5, reduced with 5 mM dithiothreitol (DTT) at room temperature for 1 hour, and alkylated with 15 mM iodoacetamide in the dark at room temperature for 1 hour. Alkylation was quenched with DTT. Urea concentration was reduced to 4 M and proteins were digested with LysC (1:50; enzyme:protein) for 6 hours at 25°C. The LysC digestion was diluted to 1 M urea, 50 mM Tris pH 8.5 and then digested with trypsin (1:100; enzyme:protein) overnight at 37°C. […] Peptide quantification was performed using the micro-BCA assay (Pierce). […]
(§2) 12 of the 24 peptide fractions from the basic reverse phase fractionation (every other fraction) were analyzed with an LC-MS3 data collection strategy ([McAlister et al., 2014]) on an Orbitrap Fusion mass spectrometer (Thermo Fisher Scientific) equipped with a Proxeon Easy nLC 1000 for online sample handling and peptide separations. […]
(§3) A suite of in-house software tools were used to for. RAW file processing and controlling peptide and protein level false discovery rates, assembling proteins from peptides, and protein quantification from peptides as previously described. […]

[3] = tested on: HNRNPR; experiment: Quantitative multiplexed proteomics (TMT LC-MS3); assay type: cell-based, human; settings: 250 nM, 60 min, MELK−/− MDA-MB-468-FKBP12^F36V-MELK cells
Description: as §1, §2, §3

[4] = tested on: EEA1; experiment: Quantitative multiplexed proteomics (TMT LC-MS3); assay type: cell-based, human; settings: 250 nM, 60 min, MELK−/− MDA-MB-468-FKBP12^F36V-MELK cells
Description: as §1, §2, §3

[5] = biological target: T1, MELK (Homo sapiens, UniProt P62942+Q14680); experiment: Quantitative multiplexed proteomics (TMT LC-MS3); assay type: cell-based; settings: 250 nM, 60 min, MELK−/− MDA-MB-468-FKBP12^F36V-MELK cells
T1 construct: expressed in transfected cells; host or cells: MDA-MB-468 (lentiviral transduction, endogenous MELK knocked out)
T1 sequence (P62942+Q14680 fused P62942:F37V): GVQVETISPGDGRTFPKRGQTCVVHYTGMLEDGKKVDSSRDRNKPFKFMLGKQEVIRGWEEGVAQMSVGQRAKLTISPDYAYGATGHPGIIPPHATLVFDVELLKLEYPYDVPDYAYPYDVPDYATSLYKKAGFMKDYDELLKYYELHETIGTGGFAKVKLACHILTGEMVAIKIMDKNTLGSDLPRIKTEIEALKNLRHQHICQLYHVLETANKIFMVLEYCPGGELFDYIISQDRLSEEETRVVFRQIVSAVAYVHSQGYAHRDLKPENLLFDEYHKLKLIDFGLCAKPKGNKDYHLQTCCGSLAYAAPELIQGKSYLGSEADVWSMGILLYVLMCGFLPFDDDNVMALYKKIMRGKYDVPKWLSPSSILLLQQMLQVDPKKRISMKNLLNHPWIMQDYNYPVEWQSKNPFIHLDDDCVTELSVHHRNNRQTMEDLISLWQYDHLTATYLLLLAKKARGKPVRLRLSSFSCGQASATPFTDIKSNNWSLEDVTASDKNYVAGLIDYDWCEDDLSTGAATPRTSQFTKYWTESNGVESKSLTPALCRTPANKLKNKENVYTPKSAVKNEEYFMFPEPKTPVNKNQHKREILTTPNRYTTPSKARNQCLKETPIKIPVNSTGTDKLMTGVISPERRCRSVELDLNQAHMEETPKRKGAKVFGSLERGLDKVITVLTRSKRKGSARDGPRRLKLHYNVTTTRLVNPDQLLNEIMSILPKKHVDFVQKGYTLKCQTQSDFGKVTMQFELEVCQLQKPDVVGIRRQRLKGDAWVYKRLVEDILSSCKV
T1 sequence (Q96SW2 whole entry partner): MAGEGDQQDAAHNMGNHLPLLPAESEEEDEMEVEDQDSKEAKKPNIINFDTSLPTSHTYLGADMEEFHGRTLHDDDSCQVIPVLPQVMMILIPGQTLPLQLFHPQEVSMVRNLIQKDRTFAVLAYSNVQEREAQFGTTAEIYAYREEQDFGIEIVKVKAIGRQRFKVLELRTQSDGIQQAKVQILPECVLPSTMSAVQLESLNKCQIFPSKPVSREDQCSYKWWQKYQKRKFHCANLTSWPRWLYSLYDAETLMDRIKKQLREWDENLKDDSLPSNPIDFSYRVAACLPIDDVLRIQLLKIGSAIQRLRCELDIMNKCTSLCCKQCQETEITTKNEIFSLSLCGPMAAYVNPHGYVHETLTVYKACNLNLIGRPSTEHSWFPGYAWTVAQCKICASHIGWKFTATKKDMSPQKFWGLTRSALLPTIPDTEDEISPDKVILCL
T1 sequence (Q16531 2-1140 partner limits assumed): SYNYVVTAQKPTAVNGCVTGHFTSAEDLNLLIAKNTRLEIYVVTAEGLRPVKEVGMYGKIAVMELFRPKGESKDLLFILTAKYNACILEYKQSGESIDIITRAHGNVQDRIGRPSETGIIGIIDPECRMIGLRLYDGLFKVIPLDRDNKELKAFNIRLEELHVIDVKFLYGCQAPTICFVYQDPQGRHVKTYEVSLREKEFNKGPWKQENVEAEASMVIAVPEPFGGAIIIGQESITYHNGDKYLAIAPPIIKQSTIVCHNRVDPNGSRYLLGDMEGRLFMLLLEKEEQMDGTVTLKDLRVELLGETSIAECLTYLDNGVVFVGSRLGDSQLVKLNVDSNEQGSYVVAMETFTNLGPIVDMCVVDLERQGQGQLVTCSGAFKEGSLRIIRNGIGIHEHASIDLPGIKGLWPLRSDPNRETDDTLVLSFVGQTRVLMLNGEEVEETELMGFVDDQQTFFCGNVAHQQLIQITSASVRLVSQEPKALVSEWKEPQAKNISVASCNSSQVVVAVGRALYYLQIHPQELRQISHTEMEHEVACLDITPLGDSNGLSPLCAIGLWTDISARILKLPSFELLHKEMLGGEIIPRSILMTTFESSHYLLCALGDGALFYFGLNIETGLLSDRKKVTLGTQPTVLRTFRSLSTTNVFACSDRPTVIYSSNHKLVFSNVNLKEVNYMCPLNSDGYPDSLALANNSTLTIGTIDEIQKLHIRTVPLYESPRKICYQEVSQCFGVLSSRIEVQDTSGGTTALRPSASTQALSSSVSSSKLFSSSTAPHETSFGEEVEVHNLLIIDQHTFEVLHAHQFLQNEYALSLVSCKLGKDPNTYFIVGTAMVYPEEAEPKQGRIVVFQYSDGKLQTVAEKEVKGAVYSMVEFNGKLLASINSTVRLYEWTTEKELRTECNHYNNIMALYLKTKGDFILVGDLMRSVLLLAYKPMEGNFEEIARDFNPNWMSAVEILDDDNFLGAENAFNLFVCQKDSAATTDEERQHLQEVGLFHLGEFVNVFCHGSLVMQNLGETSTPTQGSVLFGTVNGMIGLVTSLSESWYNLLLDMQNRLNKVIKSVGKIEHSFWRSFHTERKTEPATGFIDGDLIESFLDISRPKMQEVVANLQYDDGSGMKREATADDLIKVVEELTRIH
Description: MELK−/− MDA-MB-468-FKBP12^F36V-MELK cells were treated in duplicates with DMSO for 30 minutes or 60 minutes, or in triplicates with dTAG-7 (250 nM) for 30 minutes or 60 minutes. Cells were washed with ice-cold PBS once, collected by scraping and centrifugation, and lysed in 1 mL of lysis buffer (8 M urea, 1% SDS, 50 mM Tris pH8.5 supplemented with protease and phosphatase inhibitors). A micro-BCA assay (Pierce) was used to determine the protein concentration of each sample. A total of 1200 µg of proteins from each sample was depleted of abundant proteins using two Pierce Top 12 protein depletion spin columns. Eluted proteins were combined, and protein concentration was determined by micro-BCA. […] Peptide quantification was performed using the micro-BCA assay (Pierce). […]
as §2, §3

CCC(C(=O)N1CCCCC1C(=O)OC(CCc1ccc(OC)c(OC)c1)c1ccccc1OCC(=O)NCCCOCCOCCOCCCNC(=O)COc1cccc2c1C(=O)N(C1CCC(=O)NC1=O)C2=O)c1cc(OC)c(OC)c(OC)c1 (centres unmarked) [dTAG-7]
time to efficient depletion of FKBP12^F36V-MELK(sg3R) [1]: ≤ 4 h
logFC (log2 fold change of dTAG-7 to DMSO) MKL1 [2]: -0.2984
logFC (log2 fold change of dTAG-7 to DMSO) HNRNPR [3]: 0.28
logFC (log2 fold change of dTAG-7 to DMSO) EEA1 [4]: -0.08592
logFC (log2 fold change of dTAG-7 to DMSO) MELK [5]: -0.8583
